The values that follow come from patent publication US9023858B2, “Substituted pyrido[2,3-d]pyrimidines as delta-5-desaturase inhibitors” (Takeda Pharmaceutical Company Limited, priority 2010, dated 2015).

Structures can show the parent of a compound that is named as a salt.

The target of data set [1] is T1, delta-5-desaturase (Rattus norvegicus, UniProt Q920R3).
T1 construct: a rat liver microsome fraction (10 μl) diluted to 3 mg/ml with a microsome buffer; from tissue; host or cells: rat liver microsome fraction
T1 sequence (Q920R3 whole entry): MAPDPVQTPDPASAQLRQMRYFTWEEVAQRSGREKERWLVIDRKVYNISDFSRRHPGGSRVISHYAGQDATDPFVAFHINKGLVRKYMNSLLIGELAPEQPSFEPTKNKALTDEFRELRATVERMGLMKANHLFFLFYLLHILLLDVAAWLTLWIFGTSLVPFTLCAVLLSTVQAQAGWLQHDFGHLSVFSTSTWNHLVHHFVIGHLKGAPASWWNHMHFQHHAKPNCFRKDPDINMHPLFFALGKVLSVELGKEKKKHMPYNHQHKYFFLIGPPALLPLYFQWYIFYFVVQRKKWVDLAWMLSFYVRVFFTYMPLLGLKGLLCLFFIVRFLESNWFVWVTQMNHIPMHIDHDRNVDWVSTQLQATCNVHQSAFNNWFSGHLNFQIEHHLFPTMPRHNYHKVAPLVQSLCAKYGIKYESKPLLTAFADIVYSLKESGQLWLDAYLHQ
Briefly: Inhibitory activity on binding of [3H]-labelled Reference Example 1 ligand to delta-5-desaturase (rat liver microsome fraction). Particulars: test compound 10 μM; for inhibition at 10 µM: 3 nM tritiated ligand of Reference Example 1, read-out: Binding inhibitory activity against compound bind to delta-5-desaturase Binding inhibition rate (%) at 10 μM; for Binding inhibitory activity against compound bind to delta-5-desaturase Binding inhibition rate (%) at 10 μM: 3 nM tritiated ligand of Reference Example 1, sodium salt. The method, then:
Inhibitory Activity on Binding of N-[2-({4-oxo-3-[4-(2,2,2-trifluoroethoxy)[2,6-^3H2]phenyl]-3,4-dihydrothieno[3,4-d]pyrimidin-2-yl}sulfanyl)ethyl]acetamide (Reference Example 1) to delta-5-desaturase)
All tests were performed at room temperature at 200 μL/well. A rat liver microsome fraction (30 μg/well) was preincubated with a test compound at a final concentration of 10 μM for 15 min in an assay buffer (10 mM Tris-HCl (pH 7.5), 100 mM KCl, 10 mM NaF, 3 mM MgCl2, 0.005% Tween20 and 1 mM GSH). N-[2-({4-oxo-3-[4-(2,2,2-trifluoroethoxy) [2,6-^3H2]phenyl]-3,4-dihydrothieno[3,4-d]pyrimidin-2-yl}sulfanyl)ethyl]acetamide was added to a final concentration of 3 nM and the mixture was incubated for 150 min. For Bound/Free separation, the membrane fraction was added on a GF/C glass filter using a cell harvester. The GF/C glass filter was washed 5 times with 300 μl of ice-cooled assay buffer (without 0.005% Tween) to separate the ligand bound to delta-5-desaturase. 50 μl of MicroScinti 0 was added, and the radioactivity on the filter was measured by TopCount. To evaluate non-specific binding, 10 μM N-[2-({4-oxo-3-[4-(2,2,2-trifluoroethoxy)phenyl]-3,4-dihydrothieno[3,4-d]pyrimidin-2-yl}sulfanyl)ethyl]acetamide was used. The inhibitory rate (%) of the test compound (10 μM) on the binding of N-[2-({4-oxo-3-[4-(2,2,2-trifluoroethoxy) [2,6-^3H2]phenyl]-3,4-dihydrothieno[3,4-d]pyrimidin-2-yl}sulfanyl)ethyl]acetamide to delta-5-desaturase was determined.

For data set [2], the target named is T1, delta-5-desaturase. Kind of data set: Delta-5-desaturase inhibitory activity using rat liver microsome. In kind it is biochemical. Particulars: test compound 10 μM; for delta-5-desaturase inhibitory activity (at liver microsome) Inhibitory activity (%) at 10 μM: sodium salt. As for the experimental part:
Delta-5-Desaturase Inhibitory Activity Using Rat Liver Microsome
The inhibitory activity of the test compound on delta-5-desaturase was measured by the method described below. To a solution of the test compound in DMSO prepared in advance was secondarily diluted with a buffer (300 mM NaH2PO4 [pH 7.4], 450 mM KCl, 30 mM NaF, 9 mM MgCl2, 4.5 mM glutathione [reduced form], 0.3% BSA [fatty acid free, SIGMA]) to give an assay buffer. The assay buffer (10 μl) was dispensed to a polypropylene deep 96-well block, and a rat liver microsome fraction (10 μl) diluted to 3 mg/ml with a microsome buffer (10 mM Tris-HCl [pH 7.4], 1 mM EDTA, 250 mM sucrose) was added. The enzyme reaction was started by adding 9 mM NADH, 9 mM ATP, 0.9 mM CoA, 10 μCi/ml (8E,11E,14E)-(1-^14C)eicosa-8,11,14-trienoic acid (PerkinElmer Inc.) (10 μl). The enzyme reaction was performed for 120 min at room temperature, and discontinued by the addition of 10 μl of 2.5M NaOH. After discontinuation of the reaction, the plate was sealed and incubated overnight at 55° C. to allow saponification. The fatty acid was extracted with solvent based on the Bligh & Dyer method described in Can. J. Biochem. Physiol., vol. 37, page 911 (1959) by adding formic acid:methanol:chloroform (1:6:3) (200 μl), maintaining the single layer state, sufficiently stirring the mixture and adding pure water (120 μl) for separation into two layers. The lower chloroform layer (10 μl) was spotted on a reversed-phase TLC plate (RP-18, 1154230001, Merck Japan, Ltd.), developed with acetonitrile:pure water:acetic acid (95:4.5:0.5), and the dried TLC plate was transcribed on Imaging Plate (Fuji Photo Film Co., Ltd.) for 5 hr or longer. The detection was performed using BAS-5000 (Fuji Photo Film Co., Ltd.), and the obtained spot image was numerically converted by Multi Gauge Ver2.3 (Fuji Photo Film Co., Ltd.) and a delta-5-desaturase inhibitory rate (%) of 10 μM test compound was determined.

In data set [3] the target is T2, delta-5-desaturase (Homo sapiens, UniProt O60427).
T2 construct: endogenous in cells; host or cells: HepG2
T2 sequence (O60427 whole entry): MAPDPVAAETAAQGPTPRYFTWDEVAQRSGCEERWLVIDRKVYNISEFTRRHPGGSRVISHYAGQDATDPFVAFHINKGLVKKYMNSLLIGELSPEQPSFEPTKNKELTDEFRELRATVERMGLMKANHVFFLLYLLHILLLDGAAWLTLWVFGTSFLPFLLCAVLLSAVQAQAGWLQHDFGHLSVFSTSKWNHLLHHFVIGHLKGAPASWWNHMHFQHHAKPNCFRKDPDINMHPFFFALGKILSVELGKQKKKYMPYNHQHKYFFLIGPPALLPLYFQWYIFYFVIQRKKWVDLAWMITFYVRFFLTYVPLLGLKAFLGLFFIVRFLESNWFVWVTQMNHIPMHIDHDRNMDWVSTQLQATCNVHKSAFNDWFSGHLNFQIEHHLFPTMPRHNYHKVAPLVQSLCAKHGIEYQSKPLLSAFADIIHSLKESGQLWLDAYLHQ
Briefly: Delta-5-desaturase inhibitory activity using HepG2 cell. In kind it is cell-based. The conditions noted are these: test compound 1 μM. As for the experimental part:
Delta-5-Desaturase Inhibitory Activity Using HepG2 Cell
HepG2 was plated on a 96-well plate at 1×10^5 cells/well, and cultured overnight in DMEM (Dulbecco's modified Eagle medium) containing 10% FBS (fetal bovine serum). After washing (200 μL×2) with PBS (phosphate buffered saline), 40 μL of a reaction medium (DMEM, penicillin/streptomycin, 0.3% BSA) containing the test compound was added, and the mixture was preincubated in a CO2 incubator at 37° C. for 30 min. The reaction was started by adding a reaction medium (20 μL) containing 0.1 μCi [^14C]Eicosatrienoic acid, and the mixture was incubated in a CO2 incubator at 37° C. Incubation was performed for 3 hr, the cells were washed twice with 200 μL of PBS, detached with 50 μL of trypsin-EDTA and placed on a 96-deep well block. Furthermore, 20 μL of 2.5N NaOH was added, the plate was sealed and incubated overnight at 55° C. to allow saponification. The fatty acid extraction included acidifying with 10 μL of formic acid, adding chloroform:methanol (1:4), stirring, and further adding 200 μL of pure water to separate into two layers. The operation after development with TLC followed the method of detection system using TLC in a system using a rat liver microsome. A delta-5-desaturase inhibitory rate (%) of 1 μM test compound was determined.

Data set [4] concerns the target T3, delta-5-desaturase (Mus musculus, UniProt Q920L1).
T3 construct: the mice were anesthetized, and the liver was isolated; tissue CLEA Japan, Inc; host or cells: liver of C57BL/6J mice (in vivo dosing)
T3 sequence (Q920L1 1-447): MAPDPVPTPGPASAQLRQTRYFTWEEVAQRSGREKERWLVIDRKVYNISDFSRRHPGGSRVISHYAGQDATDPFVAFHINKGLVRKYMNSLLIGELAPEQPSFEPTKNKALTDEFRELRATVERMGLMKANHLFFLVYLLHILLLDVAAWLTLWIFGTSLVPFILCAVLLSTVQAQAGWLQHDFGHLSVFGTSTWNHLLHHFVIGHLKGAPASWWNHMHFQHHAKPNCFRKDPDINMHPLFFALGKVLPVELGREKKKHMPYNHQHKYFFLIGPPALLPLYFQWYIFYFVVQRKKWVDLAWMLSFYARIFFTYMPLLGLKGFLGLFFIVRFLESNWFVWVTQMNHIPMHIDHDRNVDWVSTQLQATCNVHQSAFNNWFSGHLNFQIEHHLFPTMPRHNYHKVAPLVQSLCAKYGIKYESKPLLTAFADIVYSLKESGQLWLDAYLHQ
Kind of data set: Delta-5-desaturase inhibitory action in vivo (liver AA/DGLA ratio in mice). Particulars: 3 mg/kg by gavage for 4 days; male C57BL/6J mice; liver phospholipid fraction; solvent administration group as 100%. The method, then:
Delta-5-Desaturase Inhibitory Action In Vivo
The delta-5-desaturase inhibitory action of the test compound in vivo was evaluated by the following method. A suspension of a test compound (3 mg/kg) in 0.5% methylcellulose was administered by gavage every morning at 10 mL/kg for 4 days to 7- to 9-week-old male normal mice (C57BL/6J, CLEA Japan, Inc.) acclimated with a normal chow feed (CE-2, CLEA Japan, Inc.) in individual cages. In the next morning of the final administration, the mice were anesthetized, and the liver was isolated. Total lipid was extracted from about 40 mg of a liver sample with hexane-propanol solution, and a phospholipid fraction was extracted using a solid phase extraction column (Sep-Pak Vac NH2, Waters) and labeled with an esterified long-chain and short-chain fatty acid labeling reagent (YMC). The arachidonic acid and dihomo-γ-linolenic acid contents of the sample after labeling were measured by high performance liquid chromatography (Agilent 1200, Agilent Technologies). The arachidonic acid (AA) content was divided by the content of dihomo-γ-linolenic acid (DGLA) to obtain an AA/DGLA ratio. The decrease rate of the test compound administration group was calculated based on the AA/DGLA ratio of the solvent administration group as 100%, which was used as an index of the liver delta-5-desaturase inhibitory action in vivo.

Turning to `O=c1ccc2c(=O)n(-c3ccc(OCC(F)(F)F)cc3)c(OC3CCC(F)(F)CC3)nc2[nH]1` [Example 15, 2-[(4,4-difluorocyclohexyl)oxy]-3-[4-(2,2,2-trifluoroethoxy)phenyl]pyrido[2,3-d]pyrimidine-4,7(3H,8H)-dione], the inhibition at 10 µM in data set [1] amounted to 99%; in data set [2] it was 104%. Further, the inhibition at 1 µM in data set [3] stood at 102%. In addition, the “lowering rate (%) of arachidonic acid/dihomo-γ-linolenic acid ratio” value in data set [4] is 69%.
For `O=c1ccc2c(=O)n(-c3ccc(OCC(F)(F)F)cc3)c(OCC(F)F)nc2[nH]1` [Example 16, 2-(2,2-difluoroethoxy)-3-[4-(2,2,2-trifluoroethoxy)phenyl]pyrido[2,3-d]pyrimidine-4,7(3H,8H)-dione], the values for the inhibition at 10 µM in data set [1] and in data set [2] were 96% and 101%, respectively. Further, in data set [3], the inhibition at 1 µM came to 102%. Further, the “lowering rate (%) of arachidonic acid/dihomo-γ-linolenic acid ratio” value in data set [4] worked out at 69%.
Consider `O=c1ccc2c(=O)n(-c3ccc(OCC(F)(F)F)cc3)c(OCC(F)(F)F)nc2[nH]1` [Example 12, 2-(2,2,2-trifluoroethoxy)-3-[4-(2,2,2-trifluoroethoxy)phenyl]pyrido[2,3-d]pyrimidine-4,7(3H,8H)-dione sodium salt], for which, in data set [1], the “Binding inhibitory activity against compound bind to delta-5-desaturase Binding inhibition rate (%) at 10 μM” value came out at 96%. Besides, in data set [2], the “delta-5-desaturase inhibitory activity (at liver microsome) Inhibitory activity (%) at 10 μM” value worked out at 99%. In addition, in data set [4], the “lowering rate (%) of arachidonic acid/dihomo-γ-linolenic acid ratio” value is 70%.
As for `CCOc1nc2c(c(=O)n1-c1ccc(OCC(F)(F)F)cc1)CCC(=O)N2` [Example 23, 2-ethoxy-3-[4-(2,2,2-trifluoroethoxy)phenyl]-5,6-dihydropyrido[2,3-d]pyrimidine-4,7(3H,8H)-dione], the inhibition at 10 µM in data set [1] is 91%; in data set [2], 96%. Further, the inhibition at 1 µM in data set [3] amounted to 93%. Further, the “lowering rate (%) of arachidonic acid/dihomo-γ-linolenic acid ratio” value in data set [4] was found to be 67%.
`O=C1CCc2c(nc(CCC(F)(F)F)n(-c3ccc(OCC(F)(F)F)cc3)c2=O)N1` [Example 39, 3-[4-(2,2,2-trifluoroethoxy)phenyl]-2-(3,3,3-trifluoropropyl)-5,6-dihydropyrido[2,3-d]pyrimidine-4,7(3H,8H)-dione]: the inhibition at 10 µM in data set [1] was determined as 91%. In data set [3], the inhibition at 1 µM turned out to be 98%. Further, the “lowering rate (%) of arachidonic acid/dihomo-γ-linolenic acid ratio” value in data set [4] is 67%.
Regarding `CCSc1nc2nc(OC)ccc2c(=O)n1-c1ccc(OCC(F)(F)F)cc1` [Example 1, 2-(ethylsulfanyl)-7-methoxy-3-[4-(2,2,2-trifluoroethoxy)phenyl]pyrido[2,3-d]pyrimidin-4(3H)-one], the inhibition at 10 µM in data set [1] was determined as 94%; in data set [2] it was 100%. The inhibition at 1 µM in data set [3] amounted to 101%. Besides, the “lowering rate (%) of arachidonic acid/dihomo-γ-linolenic acid ratio” value in data set [4] is recorded as 73%.
Consider `O=C1CCc2c(nc(OCC(F)(F)F)n(-c3ccc(OCC(F)(F)F)cc3)c2=O)N1` [Example 22, 2-(2,2,2-trifluoroethoxy)-3-[4-(2,2,2-trifluoroethoxy)phenyl]-5,6-dihydropyrido[2,3-d]pyrimidine-4,7(3H,8H)-dione], for which the results for the inhibition at 10 µM in data set [1] and in data set [2] were 92% and 100%, respectively. The inhibition at 1 µM in data set [3] is 101%. The “lowering rate (%) of arachidonic acid/dihomo-γ-linolenic acid ratio” value in data set [4] was 68%.
Take `CCOc1nc2[nH]c(=O)ccc2c(=O)n1-c1ccc(OCC(F)(F)F)cc1` [Example 10, 2-ethoxy-3-[4-(2,2,2-trifluoroethoxy)phenyl]pyrido[2,3-d]pyrimidine-4,7(3H,8H)-dione sodium salt]: in data set [1], the “Binding inhibitory activity against compound bind to delta-5-desaturase Binding inhibition rate (%) at 10 μM” value was 94%. In addition, the “delta-5-desaturase inhibitory activity (at liver microsome) Inhibitory activity (%) at 10 μM” value in data set [2] is 98%. For the same molecule, the “lowering rate (%) of arachidonic acid/dihomo-γ-linolenic acid ratio” value in data set [4] is reported as 71%.
For `CCOc1nc2nc(OC)ccc2c(=O)n1-c1ccc(OCC(F)(F)F)cc1` [Example 4, 2-ethoxy-7-methoxy-3-[4-(2,2,2-trifluoroethoxy)phenyl]pyrido[2,3-d]pyrimidin-4(3H)-one], the inhibition at 10 µM in data set [1] turned out to be 99%; in data set [2], 102%. The inhibition at 1 µM in data set [3] was found to be 96%. Moreover, the “lowering rate (%) of arachidonic acid/dihomo-γ-linolenic acid ratio” value in data set [4] stood at 64%.
